Experimental data from ChEMBL document CHEMBL3232982, “Cytotoxic properties of D-gluco-, D-galacto- and D-manno-configured 2-amino-2-deoxy-glycerolipids against epithelial cancer cell lines and BT-474 breast cancer stem cells” (2014).
Activity calls are given as the source filed them. The rule behind the calls is not given here.

Assays:
[1] = test system: BT-474; assay: Cytotoxicity against human BT474 cells assessed as reduction cell viability after 48 hrs by MTS assay; assay type: functional; details: BT-474, 48 h
[2] = test system: BT-549; assay: Cytotoxicity against human BT549 cells assessed as reduction cell viability after 48 hrs by MTS assay; assay type: functional; details: BT-549, 48 h
[3] = Cytotoxicity against human JIMT1 cells assessed as reduction cell viability after 48 hrs by MTS assay; assay type: functional; details: JIMT-1, 48 h
[4] = test system: PC-3; assay: Cytotoxicity against human PC3 cells assessed as reduction cell viability after 48 hrs by MTS assay; assay type: functional; details: PC-3, 48 h
[5] = test system: DU-145; assay: Cytotoxicity against human DU145 cells assessed as reduction cell viability after 48 hrs by MTS assay; assay type: functional; details: DU-145, 48 h
[6] = Cytotoxicity against human MIAPaCa2 cells assessed as reduction cell viability after 48 hrs by MTS assay; assay type: functional; details: MIA PaCa-2, 48 h
[7] = test system: BT-474; assay: Cytotoxicity against tumorspheres of human BT474 cells assessed as disintegration of tumorspheres at 5 to 20 uM after 6 days by phase contrast microscopy relative to untreated control; assay type: functional, cell-based
[8] = test system: BT-474; assay: Cytotoxicity against human BT474 cells assessed as inhibition of cell viability at 10 to 20 uM after 6 days by MTS assay relative to untreated control; assay type: functional, cell-based
[9] = test system: BT-474; assay: Cytotoxicity against tumorspheres of human BT474 cells assessed as inhibition of cell viability at 10 to 20 uM after 6 days by MTS assay relative to untreated control; assay type: functional, cell-based
[10] = test system: BT-474; assay: Cytotoxicity against human BT474 cells assessed as inhibition of spheroids formation at 10 to 20 uM after 6 days by phase contrast microscopy relative to untreated control; assay type: functional, cell-based
[11] = test system: BT-474; assay: Cytotoxicity against tumorspheres of human BT474 cells assessed as cell viability at 30 uM after 6 days by MTS assay relative to untreated control; assay type: functional; details: BT-474, 144 h, read-out: Activity
[12] = test system: BT-474; assay: Cytotoxicity against tumorspheres of human BT474 cells assessed as inhibition of cell viability at 20 uM after 6 days by MTS assay relative to untreated control; assay type: functional; details: BT-474, 144 h
[13] = test system: BT-474; assay: Cytotoxicity against human BT474 cells assessed as formation of spheroids with jagged rough edges at 10 to 20 uM after 6 days by phase contrast microscopy relative to untreated control; assay type: functional, cell-based
[14] = test system: BT-474; assay: Cytotoxicity against human BT474 cells assessed as cell viability at 20 uM after 6 days by MTS assay relative to untreated control; assay type: functional; details: BT-474, 144 h, read-out: Activity

Question: Which CC50 [1] does the source give for `CCCCCCCCCCCCCCCCOCC(CS[C@H]1O[C@H](CO)[C@H](O)[C@H](O)[C@H]1N)OC` (some centres undefined) here?
Answer: The CC50 was 24.4 µM.

Question: What about the CC50 [2] of the same compound?
Answer: The CC50 was 18.3 µM.

Question: And the CC50 [3]?
Answer: The CC50 was 19.1 µM.

Question: What about the CC50 [4] of the same compound?
Answer: The CC50 was 15 µM.

Question: What about the CC50 [5] of the same compound?
Answer: Its CC50 is 17.2 µM.

Question: And the CC50 [6]?
Answer: The CC50 was 18.8 µM.

Question: With `CCCCCCCCCCCCCCCCOCC(CS[C@@H]1O[C@H](CO)[C@H](O)[C@H](O)[C@H]1N)OC` (some centres undefined) as the compound, how does the CC50 [1] read?
Answer: The CC50 was > 30 µM.

Question: And the CC50 [2]?
Answer: Its CC50 is 22.2 µM.

Question: What about the CC50 [3] of the same compound?
Answer: The CC50 was 15.5 µM.

Question: And the CC50 [4]?
Answer: The CC50 was 24.3 µM.

Question: And the CC50 [5]?
Answer: Its CC50 is 18.8 µM.

Question: What about the CC50 [6] of the same compound?
Answer: The CC50 was 20.2 µM.

Question: For `CCCCCCCCCCCCCCN` [TETRADECYLAMINE], which CC50 [1] is on record?
Answer: Its CC50 is 27.1 µM.

Question: What about the CC50 [2] of the same compound?
Answer: Its CC50 is 21.7 µM.

Question: What about the CC50 [3] of the same compound?
Answer: Its CC50 is 24.8 µM.

Question: And the CC50 [4]?
Answer: The CC50 was 24.6 µM.

Question: And the CC50 [5]?
Answer: The CC50 was 16.8 µM.

Question: And the CC50 [6]?
Answer: The CC50 was 18.2 µM.

Question: What does the source list for `CCCCCCCCCCCCCCCCOCC(CO[C@H]1O[C@H](CO)[C@@H](O)[C@H](O)[C@H]1N)OC` (some centres undefined)?
Answer: CC50 [1]: 6.2 µM; CC50 [2]: 7 µM; CC50 [3]: 6 µM; CC50 [4]: 10.5 µM; CC50 [5]: 7 µM; CC50 [6]: 7 µM; Activity [7]: Active; inhibition [8]: Active; inhibition [9]: Active; inhibition [10]: Active

Question: With `CCCCCCCCCCCCCCCCOCC(CO[C@@H]1O[C@H](CO)[C@@H](O)[C@H](O)[C@H]1N)OC` (some centres undefined) as the compound, how does the CC50 [1] read?
Answer: Its CC50 is 8 µM.

Question: What about the CC50 [2] of the same compound?
Answer: The CC50 was 13 µM.

Question: And the CC50 [3]?
Answer: The CC50 was 9 µM.

Question: And the CC50 [4]?
Answer: Its CC50 is 13.5 µM.

Question: And the CC50 [5]?
Answer: Its CC50 is 10 µM.

Question: What about the CC50 [6] of the same compound?
Answer: Its CC50 is 10 µM.

Question: And the Activity [7]?
Answer: The Activity was “Active”.

Question: What about the inhibition [8] of the same compound?
Answer: Its inhibition is “Active”.

Question: What about the inhibition [10] of the same compound?
Answer: Its inhibition is “Active”.

Question: What does the source list for `CCCCCCCCCCCCCCCCOCC(CO[C@@H]1O[C@H](CO)[C@H](O)[C@H](O)[C@H]1N)OC` (some centres undefined)?
Answer: CC50 [1]: > 30 µM; CC50 [2]: 27.6 µM; CC50 [3]: 24.8 µM; CC50 [4]: > 30 µM; CC50 [5]: 19.5 µM; CC50 [6]: 25.8 µM

Question: Which results are given for `CCCCCCCCCCCCCCCCCCOCC(COP(=O)([O-])OCC[N+](C)(C)C)OC` (centres undefined) [EDELFOSINE]?
Answer: viability at 30 µM [11]: 45%; inhibition at 20 µM [12]: 30%; Activity [13]: Active; viability at 20 µM [14]: 55%; Activity [7]: inactive

Question: For `CCCCCCCCCCCCCCCCOCC(CO[C@H]1O[C@H](CO)[C@@H](O)[C@H](O)[C@@H]1N)OC` (some centres undefined), which CC50 [1] is on record?
Answer: Its CC50 is > 30 µM.

Question: What about the CC50 [2] of the same compound?
Answer: Its CC50 is > 30 µM.

Question: What about the CC50 [3] of the same compound?
Answer: The CC50 was > 30 µM.

Question: What about the CC50 [4] of the same compound?
Answer: Its CC50 is > 30 µM.

Question: What about the CC50 [5] of the same compound?
Answer: The CC50 was > 30 µM.

Question: And the CC50 [6]?
Answer: Its CC50 is > 30 µM.

Question: Which CC50 [1] does the source give for `CCCCCCCCCCCCCCCCOCC(CO[C@H]1O[C@H](CO)[C@H](O)[C@H](O)[C@H]1N)OC` (some centres undefined) here?
Answer: The CC50 was 6.2 µM.

Question: And the CC50 [2]?
Answer: The CC50 was 6.3 µM.

Question: And the CC50 [3]?
Answer: The CC50 was 4.5 µM.

Question: What about the CC50 [4] of the same compound?
Answer: The CC50 was 8 µM.

Question: What about the CC50 [5] of the same compound?
Answer: The CC50 was 4.7 µM.

Question: What about the CC50 [6] of the same compound?
Answer: The CC50 was 4.4 µM.

Question: And the Activity [7]?
Answer: The Activity was “Active”.

Question: And the inhibition [8]?
Answer: Its inhibition is “Active”.

Question: What about the inhibition [9] of the same compound?
Answer: The inhibition was “Active”.

Question: What about the inhibition [10] of the same compound?
Answer: Its inhibition is “Active”.
